Results: ChEMBL document CHEMBL2311309, “Venezuelines A-G, new phenoxazine-based alkaloids and aminophenols from Streptomyces venezuelae and the regulation of gene target Nur77” (Bioorg Med Chem Lett, 2013)
The source made the active and inactive calls. The rule behind the calls is not given here.

Experiments:
Type in all cases: functional, cell-based
[1] = Cytotoxicity against human […] cells by MTT method
BGC-823 = assay: Cytotoxicity against human BGC823 cells by MTT method
A2780 = assay: Cytotoxicity against human A2780 cells by MTT method
A549 = assay: Cytotoxicity against human A549 cells by MTT method
[2] = Cytotoxicity against human NIH-H460 cells by MTT method
HCT-8 = assay: Cytotoxicity against human HCT8 cells by MTT method
NIH-H460 [3] = assay: Induction of nur77 gene expression in human NIH-H460 cells at 10 uM within 6 hrs by RT-PCR analysis
NIH-H460 [4] = assay: Induction of nur77 gene expression in human NIH-H460 cells after 6 to 12 hrs by RT-PCR analysis
NIH-H460 [5] = assay: Induction of nur77 gene expression in human NIH-H460 cells at 1 to 10 uM by RT-PCR analysis; details: TDE = time-dependent effect
NIH-H460 [6] = assay: Induction of nur77 gene expression in human NIH-H460 cells at 1 uM within 12 hrs by RT-PCR analysis
NIH-H460 [7] = assay: Induction of nur77 gene expression in human NIH-H460 cells after 3 hrs by RT-PCR analysis
NIH-H460 [8] = assay: Induction of nur77 gene expression in human NIH-H460 cells at 1 to 10 uM after 3 hrs by RT-PCR analysis

SMILES: CC(=O)Nc1cc2nc3cc(C(=O)O)ccc3oc-2cc1=O [CARBOXYEXFOLIAZONE]
- IC50 [1]: > 30 µg/mL
- IC50 (BGC-823): > 30 µg/mL
- IC50 (A2780): > 30 µg/mL
- IC50 (A549): > 30 µg/mL
- IC50 [2]: > 30 µg/mL
- IC50 (HCT-8): > 30 µg/mL

SMILES: O=C(CO)Nc1cc2nc3cc(CO)ccc3oc-2cc1=O [CHANDRANANIMYCIN D]
- IC50 [1]: > 30 µg/mL
- IC50 (BGC-823): > 30 µg/mL
- IC50 (A2780): > 30 µg/mL
- IC50 (A549): > 30 µg/mL
- IC50 [2]: > 30 µg/mL
- IC50 (HCT-8): > 30 µg/mL

SMILES: CC(=O)Nc1cc2nc3cc(CO)ccc3oc-2cc1=O [EXFOLIAZONE]
- Activity (NIH-H460 [3]): Active
- IC50 [1]: > 10 µM
- IC50 (BGC-823): 3.4 µM
- IC50 (A2780): 2.52 µM
- Activity (NIH-H460 [4]): Dose-dependent effect
- IC50 (A549): 9.16 µM
- IC50 [2]: 13.6 µM
- IC50 (HCT-8): 4.89 µM
- Activity (NIH-H460 [5]): tde
- Activity (NIH-H460 [6]): Active

SMILES: O=c1[nH]cc(F)c(=O)[nH]1 [FLUOROURACIL]
- IC50 [1]: 3.85 µM
- IC50 (BGC-823): 3.84 µM
- IC50 (A2780): 5.4 µM
- IC50 (A549): 1.54 µM
- IC50 [2]: 7.12 µM
- IC50 (HCT-8): 5.38 µM

SMILES: CC(=O)Nc1cc(Cc2cc3oc4cc(=O)c(NC(C)=O)cc-4nc3cc2CO)ccc1O [VNEZUELINE A]
- IC50 [1]: > 30 µg/mL
- IC50 (BGC-823): > 30 µg/mL
- IC50 (A2780): > 30 µg/mL
- IC50 (A549): > 30 µg/mL
- IC50 [2]: > 30 µg/mL
- IC50 (HCT-8): > 30 µg/mL

SMILES: O=C1NC2=Nc3cc(CO)ccc3O[C@]23[C@H](O)CC[C@H]13 [VNEZUELINE B]
- Activity (NIH-H460 [7]): Dose-dependent effect
- IC50 [1]: > 10 µM
- IC50 (BGC-823): 6.78 µM
- IC50 (A2780): 6.57 µM
- IC50 (A549): 7.52 µM
- IC50 [2]: 9.67 µM
- IC50 (HCT-8): 5.74 µM

SMILES: CC(=O)Nc1cc2c(cc1OC(=O)CO)Oc1ccc(CO)cc1N2 [VNEZUELINE C]
- IC50 [1]: > 50 µg/mL
- IC50 (BGC-823): > 50 µg/mL
- IC50 (A2780): > 50 µg/mL
- IC50 (A549): > 50 µg/mL
- IC50 [2]: > 50 µg/mL
- IC50 (HCT-8): > 50 µg/mL

SMILES: O=C(CO)Nc1cc2c(cc1OC(=O)CO)Oc1ccc(CO)cc1N2 [VNEZUELINE D]
- IC50 [1]: > 50 µg/mL
- IC50 (BGC-823): > 50 µg/mL
- Activity (NIH-H460 [8]): inactive
- IC50 (A2780): > 50 µg/mL
- IC50 (A549): > 50 µg/mL
- IC50 [2]: > 50 µg/mL
- IC50 (HCT-8): > 50 µg/mL

SMILES: CCCC(=O)OCc1ccc2oc3cc(=O)c(NC(C)=O)cc-3nc2c1 [VNEZUELINE E]
- IC50 [1]: > 30 µg/mL
- IC50 (BGC-823): > 30 µg/mL
- IC50 (A2780): > 30 µg/mL
- IC50 (A549): > 30 µg/mL
- IC50 [2]: > 30 µg/mL
- IC50 (HCT-8): > 30 µg/mL

SMILES: CC(=O)Nc1cc(COCc2ccc(O)c(NC(C)=O)c2)ccc1O [VNEZUELINE F]
- IC50 [1]: > 50 µg/mL
- IC50 (BGC-823): > 50 µg/mL
- IC50 (A2780): > 50 µg/mL
- IC50 (A549): > 50 µg/mL
- IC50 [2]: > 50 µg/mL
- IC50 (HCT-8): > 50 µg/mL

SMILES: COCc1ccc(O)c(NC(C)=O)c1 [VNEZUELINE G]
- IC50 [1]: > 50 µg/mL
- IC50 (BGC-823): > 50 µg/mL
- IC50 (A2780): > 50 µg/mL
- IC50 (A549): > 50 µg/mL
- IC50 [2]: > 50 µg/mL
- IC50 (HCT-8): > 50 µg/mL
